Reference: patent US11603377B2, “MTORC1 modulators and uses thereof” (Aeovian Pharmaceuticals, Inc., priority 2020, dated 2023)

Legend:
[1] = biological target: FKBP51 / FRB ternary complex (Homo sapiens (Human), UniProt P42345+Q13451); assay: SPR assay to characterize ternary complex formation with FKBP51 (FRB binding to rapalog-saturated FKBP51); details: FRB dilutions with 100 nM rapalog on immobilized FKBP51
Method in brief: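 SPR with biotinylated avi-FKBP51 on streptavidin chip (~200 RU); FRB (0.00011-20 μM, 3-fold series) injected with 100 nM rapalog, A-B-A mode keeping FKBP saturated with rapalog.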

mTORC2 = mTORC2 (Homo sapiens (Human), UniProt P42345+P62942); assay: mTORC2 inhibition, AlphaLISA of Phospho-AKT (pAKT pS473) in PC3 cells; type: cell-based
FKBP12 = FKBP12 (Homo sapiens (Human), UniProt P62942); assay: SPR assay to determine binding affinity to FKBP12 (direct binding); details: immobilized biotinylated avi-FKBP12
FKBP12, sequence (P62942 whole entry): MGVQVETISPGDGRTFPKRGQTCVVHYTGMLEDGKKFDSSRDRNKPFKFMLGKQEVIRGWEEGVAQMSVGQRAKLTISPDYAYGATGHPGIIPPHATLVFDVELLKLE

mTORC1 = mTORC1 (Homo sapiens (Human), UniProt P42345+P62942); assay: mTORC1 inhibition, AlphaLISA of Phospho-p70 S6 kinase (p70S6K pT389) in PC-3 cells; type: cell-based; details: inhibition of p70S6K pT389 levels
FKBP51 = FKBP51 (Homo sapiens (Human), UniProt Q13451); assay: SPR assay to determine binding affinity to FKBP51 (direct binding); details: immobilized biotinylated avi-FKBP51
FKBP51, sequence (Q13451 whole entry): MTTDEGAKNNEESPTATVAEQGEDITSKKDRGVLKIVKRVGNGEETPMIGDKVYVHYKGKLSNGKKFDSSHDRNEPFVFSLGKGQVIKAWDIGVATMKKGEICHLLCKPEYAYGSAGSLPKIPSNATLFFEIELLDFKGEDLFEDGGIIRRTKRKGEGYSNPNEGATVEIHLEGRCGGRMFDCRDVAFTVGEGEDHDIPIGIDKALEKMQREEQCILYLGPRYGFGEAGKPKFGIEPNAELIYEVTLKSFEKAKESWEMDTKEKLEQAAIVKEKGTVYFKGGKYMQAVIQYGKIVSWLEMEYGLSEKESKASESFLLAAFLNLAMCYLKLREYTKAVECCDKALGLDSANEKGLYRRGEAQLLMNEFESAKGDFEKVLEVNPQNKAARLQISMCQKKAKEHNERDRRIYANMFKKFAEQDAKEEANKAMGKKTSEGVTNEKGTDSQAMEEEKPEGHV
Method in brief: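 Biotinylated avi-FKBP51 captured on streptavidin chip to about 2000 RU. Compounds injected at 0.5-1000 nM (8 points, 3-fold) for 120 s contact and 3600 s dissociation in 50 mM HEPES pH 7.5, 150 mM NaCl, 2 mM MgCl2, 1 mM DTT, 0.05% Tween-20, 1% DMSO.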

[2] = biological target: FKBP12 / FRB ternary complex (Homo sapiens (Human), UniProt P42345+P62942); assay: SPR assay to characterize ternary complex formation with FKBP12 (FRB binding to rapalog-saturated FKBP12); details: FRB dilutions with 100 nM rapalog on immobilized FKBP12
Method in brief: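 Biotinylated avi-FKBP12 immobilized (~100 RU) on streptavidin chip; A-B-A injections kept FKBP12 saturated with 100 nM rapalog while FRB (0.00011–20 μM, 3-fold, 12 points) was injected 120 s.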

Row | SMILES | Kd [1] | mTORC2 % inhibition at 1 uM (mTORC2) | Kd (FKBP12) | IC50 (mTORC1) | Kd (FKBP51) | Kd [2]
1 | COC1CC(CC(C)C2CC(=O)C(C)C=C(C)C(O)C(OC)C(=O)C(C)CC(C)C=CC=CC=C(C)C(NS(=O)(=O)C3CC3)CC3CCC(C)C(O)(O3)C(=O)C(=O)N3CCCCC3C(=O)O2)CCC1O (mixture of isomers) [Compound 1] | < 300 nM | A (A ≤20% inhibition at 1 micro Molar (uM)) | > 1 nM | 0.1 to 0.8 nM | 10 to 100 nM | 300 to 800 nM
2 | COCCOC1CC2CCC(C)C(O)(O2)C(=O)C(=O)N2CCCCC2C(=O)OC(C(C)CC2CCC(OCC(=O)O)C(OC)C2)CC(=O)C(C)C=C(C)C(O)C(OC)C(=O)C(C)CC(C)C=CC=CC=C1C (stereo not drawn) [Compound 57] | > 800 nM | B (B>20% and less than 40% inhibition at 1 uM) | > 1 nM | > 0.8 nM | 10 to 100 nM | 300 to 800 nM
3 | COCCOCCS(=O)(=O)N[C@H]1C[C@@H]2CC[C@@H](C)[C@@](O)(O2)C(=O)C(=O)N2CCCC[C@H]2C(=O)O[C@H]([C@H](C)C[C@@H]2CC[C@@H](O)[C@H](OC)C2)CC(=O)[C@H](C)/C=C(\C)[C@@H](O)[C@@H](OC)C(=O)[C@H](C)C[C@H](C)/C=C/C=C/C=C/1C [Compound 9] | < 300 nM | C (C≥40% and less than 60% inhibition at 1 uM) | < 0.3 nM | < 0.1 nM | < 10 nM | < 300 nM
4 | CO[C@@H]1C[C@H](C[C@@H](C)[C@@H]2CC(=O)[C@H](C)/C=C(\C)[C@@H](O)[C@@H](OC)C(=O)[C@H](C)C[C@H](C)/C=C/C=C/C=C(\C)[C@@H](OCCC3CCOC3)C[C@@H]3CC[C@@H](C)[C@@](O)(O3)C(=O)C(=O)N3CCCC[C@H]3C(=O)O2)CC[C@H]1O (stereo partly drawn) [Compound 32] | > 800 nM | A (A ≤20% inhibition at 1 micro Molar (uM)) | < 0.3 nM | 0.1 to 0.8 nM | 10 to 100 nM | 300 to 800 nM
5 | CO[C@@H]1C[C@H](C[C@@H](C)[C@@H]2CC(=O)[C@H](C)/C=C(\C)[C@@H](O)[C@@H](OC)C(=O)[C@H](C)C[C@H](C)/C=C/C=C/C=C(\C)[C@@H](NS(=O)(=O)CC3CCCC3)C[C@@H]3CC[C@@H](C)[C@@](O)(O3)C(=O)C(=O)N3CCCC[C@H]3C(=O)O2)CC[C@H]1O [Compound 23] | > 800 nM | A (A ≤20% inhibition at 1 micro Molar (uM)) | < 0.3 nM | > 0.8 nM | 10 to 100 nM | > 800 nM
6 | COC1CC(CC(C)C2CC(=O)C(C)C=C(C)C(O)C(OC)C(=O)C(C)CC(C)C=CC=CC=C(C)C(NS(=O)(=O)C3CC3)CC3CCC(C)C(O)(O3)C(=O)C(=O)N3CCCCC3C(=O)O2)CCC1OCCCO (mixture of isomers) [Compound 15] | > 800 nM | A (A ≤20% inhibition at 1 micro Molar (uM)) | < 0.3 nM | 0.1 to 0.8 nM | 10 to 100 nM | < 300 nM
7 | CO[C@@H]1C[C@H](C[C@@H](C)[C@@H]2CC(=O)[C@H](C)/C=C(\C)[C@@H](O)[C@@H](OC)C(=O)[C@H](C)C[C@H](C)/C=C/C=C/C=C(\C)[C@@H](OCC3CCOC3)C[C@@H]3CC[C@@H](C)[C@@](O)(O3)C(=O)C(=O)N3CCCC[C@H]3C(=O)O2)CC[C@H]1O (stereo partly drawn) [Compound 31] | > 800 nM | A (A ≤20% inhibition at 1 micro Molar (uM)) | < 0.3 nM | 0.1 to 0.8 nM | 10 to 100 nM | > 800 nM
8 | COC1CC(CC(C)C2CC(=O)C(C)C=C(C)C(O)C(OC)C(=O)C(C)CC(C)C=CC=CC=C(C)C(OCC3CCCC3)CC3CCC(C)C(O)(O3)C(=O)C(=O)N3CCCCC3C(=O)O2)CCC1O (stereo not drawn) [Compound 40] | > 800 nM | A (A ≤20% inhibition at 1 micro Molar (uM)) | > 1 nM | 0.1 to 0.8 nM | > 100 nM | 300 to 800 nM
9 | CCOC(=O)CS(=O)(=O)NC1C[C@H]2CC[C@H](C)[C@](O)(O2)C(=O)C(=O)N(C)C(C)C(=O)OC([C@H](C)C[C@@H]2CC[C@@H](OC3CC3)[C@H](OC)C2)CC(=O)C(C)/C=C(\C)C(O)C(OC)C(=O)C(C)CC/C=C/C=C/C=C/1C (stereo partly drawn) [Compound 12] | 300 to 800 nM | A (A ≤20% inhibition at 1 micro Molar (uM)) | 0.3 to 1 nM | > 0.8 nM | 10 to 100 nM | 300 to 800 nM
10 | COC1CC(CC(C)C2CC(=O)C(C)C=C(C)C(O)C(OC)C(=O)C(C)CC(C)C=CC=CC=C(C)C(OCC3CCC3)CC3CCC(C)C(O)(O3)C(=O)C(=O)N3CCCCC3C(=O)O2)CCC1OCCCO (stereo not drawn) [Compound 44] | > 800 nM | C (C≥40% and less than 60% inhibition at 1 uM) | > 1 nM | 0.1 to 0.8 nM | > 100 nM | < 300 nM
11 | COCCOCCS(=O)(=O)NC1CC2CCC(C)C(O)(O2)C(=O)C(=O)N2CCCCC2C(=O)OC(C(C)CC2CCC(OCCCO)C(OC)C2)CC(=O)C(C)C=C(C)C(O)C(OC)C(=O)C(C)CC(C)C=CC=CC=C1C (stereo not drawn) [Compound 2] | 300 to 800 nM | A (A ≤20% inhibition at 1 micro Molar (uM)) | < 0.3 nM | < 0.1 nM | 10 to 100 nM | < 300 nM
12 | CO[C@@H]1C[C@H](C[C@@H](C)[C@@H]2CC(=O)[C@H](C)/C=C(\C)[C@@H](O)[C@@H](OC)C(=O)[C@H](C)C[C@H](C)/C=C/C=C/C=C(\C)[C@@H](OCCC3CCO3)C[C@@H]3CC[C@@H](C)[C@@](O)(O3)C(=O)C(=O)N3CCCC[C@H]3C(=O)O2)CC[C@H]1O (stereo partly drawn) [Compound 28] | > 800 nM | B (B>20% and less than 40% inhibition at 1 uM) | < 0.3 nM | 0.1 to 0.8 nM | 10 to 100 nM | > 800 nM
13 | COC1CC(CC(C)C2CC(=O)C(C)C=C(C)C(O)C(OC)C(=O)C(C)CC(C)C=CC=CC=C(C)C(OCC3CC3)CC3CCC(C)C(O)(O3)C(=O)C(=O)N3CCCCC3C(=O)O2)CCC1O (stereo not drawn) [Compound 39] | > 800 nM | B (B>20% and less than 40% inhibition at 1 uM) | 0.3 to 1 nM | 0.1 to 0.8 nM | > 100 nM | 300 to 800 nM
14 | CO[C@@H]1C[C@H](C[C@@H](C)[C@@H]2CC(=O)[C@H](C)/C=C(\C)[C@@H](O)[C@@H](OC)C(=O)[C@H](C)C[C@H](C)/C=C/C=C/C=C(\C)[C@H](NS(=O)(=O)CC3CCOCC3)C[C@@H]3CC[C@@H](C)[C@@](O)(O3)C(=O)C(=O)N3CCCC[C@H]3C(=O)O2)CC[C@H]1O [Compound 5] | > 800 nM | A (A ≤20% inhibition at 1 micro Molar (uM)) | < 0.3 nM | 0.1 to 0.8 nM | 10 to 100 nM | > 800 nM
15 | COC1CC(CC(C)C2CC(=O)C(C)C=C(C)C(O)C(OC)C(=O)C(C)CC(C)C=CC=CC=C(C)C(OCC3CC3)CC3CCC(C)C(O)(O3)C(=O)C(=O)N3CCCCC3C(=O)O2)CCC1OCCO (stereo not drawn) [Compound 54] | > 800 nM | B (B>20% and less than 40% inhibition at 1 uM) | > 1 nM | 0.1 to 0.8 nM | > 100 nM | < 300 nM
16 | COC1CC(CC(C)C2CC(=O)C(C)C=C(C)C(O)C(OC)C(=O)C(C)CC(C)C=CC=CC=C(C)C(OC3CC3)CC3CCC(C)C(O)(O3)C(=O)C(=O)N3CCCCC3C(=O)O2)CCC1OCCCO (stereo not drawn) [Compound 52] | > 800 nM | B (B>20% and less than 40% inhibition at 1 uM) | 0.3 to 1 nM | 0.1 to 0.8 nM | > 100 nM | < 300 nM
17 | COC1CC(CC(C)C2CC(=O)C(C)C=C(C)C(O)C(OC)C(=O)C(C)CC(C)C=CC=CC=C(C)C(OCC3CCC3)CC3CCC(C)C(O)(O3)C(=O)C(=O)N3CCCCC3C(=O)O2)CCC1OCCO (stereo not drawn) [Compound 45] | < 300 nM | B (B>20% and less than 40% inhibition at 1 uM) | > 1 nM | > 0.8 nM | > 100 nM | < 300 nM
18 | CCOC(=O)COC1CCC(CC(C)C2CC(=O)C(C)C=C(C)C(O)C(OC)C(=O)C(C)CC(C)C=CC=CC=C(C)C(OCCOC)CC3CCC(C)C(O)(O3)C(=O)C(=O)N3CCCCC3C(=O)O2)CC1OC (stereo not drawn) [Compound 56] | > 800 nM | C (C≥40% and less than 60% inhibition at 1 uM) | < 0.3 nM | 0.1 to 0.8 nM | > 100 nM | 300 to 800 nM
19 | CCOC(=O)COC1CCC(CC(C)C2CC(=O)C(C)C=C(C)C(O)C(OC)C(=O)C(C)CC(C)C=CC=CC=C(C)C(NS(=O)(=O)CCOC)CC3CCC(C)C(O)(O3)C(=O)C(=O)N3CCCCC3C(=O)O2)CC1OC (mixture of isomers) [Compound 14] | > 800 nM | A (A ≤20% inhibition at 1 micro Molar (uM)) | 0.3 to 1 nM | > 0.8 nM | 10 to 100 nM | > 800 nM
